{
  "source": "the NIST ThermoML archive (doi:10.1021/je0341918)",
  "key": {"[1]": {"conditions": "101.33 kPa, Liquid"}, "[2]": {"experiment": "molar heat capacity at constant pressure", "conditions": "298.15 K; 101.33 kPa; Liquid; Small sample (50 mg) DSC"}, "[3]": {"experiment": "xn = mol fraction of the nth substance listed", "conditions": "101.3 kPa, Liquid, x2 = 0"}, "[4]": {"experiment": "molar heat capacity at constant pressure; xn = mol fraction of the nth substance listed", "conditions": "101.3 kPa, Liquid, Small sample (50 mg) DSC, x2 = 0"}},
  "note": "Numbers after ± are expanded uncertainties.",
  "data": [
    {"smiles": "OCCCCO", "note": "[1,4-butanediol]", "values": [
      {"measurement": "mass density", "setting": "[1]; 293.15 K", "result": "1015.76 ± 0.35", "unit": "kg/m3"},
      {"measurement": "viscosity", "setting": "[1]; 293.15 K", "result": "90.33 ± 7.4", "unit": "mPa·s"},
      {"measurement": "mass density", "setting": "[1]; 298.15 K", "result": "1012.68 ± 0.34", "unit": "kg/m3"},
      {"measurement": "viscosity", "setting": "[1]; 298.15 K", "result": "71.15 ± 3.5", "unit": "mPa·s"},
      {"measurement": "mass density", "setting": "[1]; 303.15 K", "result": "1009.54 ± 0.33", "unit": "kg/m3"},
      {"measurement": "viscosity", "setting": "[1]; 303.15 K", "result": "55.98 ± 0.93", "unit": "mPa·s"},
      {"measurement": "mass density", "setting": "[1]; 308.15 K", "result": "1006.43 ± 0.32", "unit": "kg/m3"},
      {"measurement": "viscosity", "setting": "[1]; 308.15 K", "result": "44.44 ± 1.5", "unit": "mPa·s"},
      {"measurement": "mass density", "setting": "[1]; 313.15 K", "result": "1003.37 ± 0.31", "unit": "kg/m3"},
      {"measurement": "viscosity", "setting": "[1]; 313.15 K", "result": "35.74 ± 1.2", "unit": "mPa·s"},
      {"measurement": "mass density", "setting": "[1]; 318.15 K", "result": "1000.45 ± 0.3", "unit": "kg/m3"},
      {"measurement": "viscosity", "setting": "[1]; 318.15 K", "result": "29.11 ± 0.97", "unit": "mPa·s"},
      {"measurement": "mass density", "setting": "[1]; 323.15 K", "result": "997.14 ± 0.31", "unit": "kg/m3"},
      {"measurement": "viscosity", "setting": "[1]; 323.15 K", "result": "23.63 ± 0.8", "unit": "mPa·s"},
      {"measurement": "mass density", "setting": "[1]; 328.15 K", "result": "994.02 ± 0.32", "unit": "kg/m3"},
      {"measurement": "viscosity", "setting": "[1]; 328.15 K", "result": "19.68 ± 0.68", "unit": "mPa·s"},
      {"measurement": "mass density", "setting": "[1]; 333.15 K", "result": "990.93 ± 0.33", "unit": "kg/m3"},
      {"measurement": "viscosity", "setting": "[1]; 333.15 K", "result": "16.17 ± 0.57", "unit": "mPa·s"},
      {"measurement": "mass density", "setting": "[1]; 338.15 K", "result": "987.93 ± 0.33", "unit": "kg/m3"},
      {"measurement": "viscosity", "setting": "[1]; 338.15 K", "result": "13.65 ± 0.49", "unit": "mPa·s"},
      {"measurement": "mass density", "setting": "[1]; 343.15 K", "result": "984.81 ± 0.34", "unit": "kg/m3"},
      {"measurement": "viscosity", "setting": "[1]; 343.15 K", "result": "11.45 ± 0.42", "unit": "mPa·s"},
      {"measurement": "mass density", "setting": "[1]; 348.15 K", "result": "981.7 ± 0.35", "unit": "kg/m3"},
      {"measurement": "viscosity", "setting": "[1]; 348.15 K", "result": "9.778 ± 0.37", "unit": "mPa·s"},
      {"measurement": "mass density", "setting": "[1]; 353.15 K", "result": "978.59 ± 0.36", "unit": "kg/m3"},
      {"measurement": "viscosity", "setting": "[1]; 353.15 K", "result": "8.28 ± 0.32", "unit": "mPa·s"},
      {"measurement": "mass density", "setting": "[1]; 363.15 K", "result": "972.71 ± 0.38", "unit": "kg/m3"},
      {"measurement": "viscosity", "setting": "[1]; 363.15 K", "result": "6.213 ± 0.26", "unit": "mPa·s"},
      {"measurement": "molar heat capacity at constant pressure", "setting": "[2]", "result": "200.9 ± 4", "unit": "J/K/mol"}
    ]},
    {"smiles": "O", "note": "[water] + OCCCCO", "values": [
      {"measurement": "viscosity", "setting": "[3]; 293.15 K", "result": "1.002 ± 0.099", "unit": "mPa·s"},
      {"measurement": "viscosity", "setting": "[3]; 303.15 K", "result": "0.797 ± 0.081", "unit": "mPa·s"},
      {"measurement": "viscosity", "setting": "[3]; 313.15 K", "result": "0.653 ± 0.069", "unit": "mPa·s"},
      {"measurement": "mass density", "setting": "[3]; 323.15 K", "result": "988.05 ± 0.29", "unit": "kg/m3"},
      {"measurement": "viscosity", "setting": "[3]; 323.15 K", "result": "0.547 ± 0.06", "unit": "mPa·s"},
      {"measurement": "mass density", "setting": "[3]; 333.15 K", "result": "983.21 ± 0.3", "unit": "kg/m3"},
      {"measurement": "viscosity", "setting": "[3]; 333.15 K", "result": "0.467 ± 0.053", "unit": "mPa·s"},
      {"measurement": "mass density", "setting": "[3]; 343.15 K", "result": "977.79 ± 0.32", "unit": "kg/m3"},
      {"measurement": "viscosity", "setting": "[3]; 343.15 K", "result": "0.405 ± 0.047", "unit": "mPa·s"},
      {"measurement": "mass density", "setting": "[3]; 353.15 K", "result": "971.83 ± 0.34", "unit": "kg/m3"},
      {"measurement": "viscosity", "setting": "[3]; 353.15 K", "result": "0.356 ± 0.043", "unit": "mPa·s"},
      {"measurement": "molar heat capacity at constant pressure", "setting": "[4]; 293.15 K", "result": "75.2 ± 1.5", "unit": "J/K/mol"},
      {"measurement": "molar heat capacity at constant pressure", "setting": "[4]; 303.15 K", "result": "75.3 ± 1.5", "unit": "J/K/mol"},
      {"measurement": "molar heat capacity at constant pressure", "setting": "[4]; 313.15 K", "result": "75.2 ± 1.5", "unit": "J/K/mol"},
      {"measurement": "molar heat capacity at constant pressure", "setting": "[4]; 323.15 K", "result": "75.2 ± 1.5", "unit": "J/K/mol"},
      {"measurement": "molar heat capacity at constant pressure", "setting": "[4]; 333.15 K", "result": "75.2 ± 1.5", "unit": "J/K/mol"},
      {"measurement": "molar heat capacity at constant pressure", "setting": "[4]; 343.15 K", "result": "75.3 ± 1.5", "unit": "J/K/mol"},
      {"measurement": "molar heat capacity at constant pressure", "setting": "[4]; 353.15 K", "result": "75.4 ± 1.5", "unit": "J/K/mol"}
    ]}
  ]
}
